Like-named read-outs stand apart in the source and are kept apart here.
Experiments:
Assay type in all cases: in vitro ADME
CYP1A2 = molecular target: T1, CYP1A2 (Homo sapiens, UniProt P05177); assay: Monooxygenases activity screening, CYP1A2; parameters: key: +, detected; -, not detected; conditions: 30 min, 37 °C
T1 construct: purchased Discovery Life Sciences (Huntsville, LA, USA); host or cells: baculovirus-infected insect cells (microsomes, Supersomes)
T1 sequence (P05177 1-516): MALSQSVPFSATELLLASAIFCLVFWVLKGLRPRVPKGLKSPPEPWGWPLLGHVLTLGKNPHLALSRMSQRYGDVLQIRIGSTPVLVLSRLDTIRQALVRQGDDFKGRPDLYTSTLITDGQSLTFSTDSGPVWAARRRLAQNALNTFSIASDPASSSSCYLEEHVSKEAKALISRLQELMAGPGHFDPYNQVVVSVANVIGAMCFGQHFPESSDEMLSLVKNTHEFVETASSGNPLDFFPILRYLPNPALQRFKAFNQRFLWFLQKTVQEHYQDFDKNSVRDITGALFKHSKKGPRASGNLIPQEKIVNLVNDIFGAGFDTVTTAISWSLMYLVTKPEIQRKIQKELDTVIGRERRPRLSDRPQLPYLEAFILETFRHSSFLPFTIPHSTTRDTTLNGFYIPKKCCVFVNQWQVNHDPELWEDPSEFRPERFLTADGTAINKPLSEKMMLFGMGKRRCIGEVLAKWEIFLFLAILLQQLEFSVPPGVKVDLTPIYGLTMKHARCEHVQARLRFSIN
Experimental: (§1) For incubations with CYP2A6 or CYP2C9, phosphate buffer was replaced with 90 mM Tris buffer, according to the manufacturer’s guideline. […] All incubations were done in duplicate and concentrations were fixed. Verapamil (25 µM) was incubated as a positive control.

CYP2A6 = molecular target: T2, CYP2A6 (Homo sapiens, UniProt P11509); assay: Monooxygenases activity screening, CYP2A6; parameters: key: +, detected; -, not detected; conditions: 30 min, 37 °C
T2 construct: purchased Discovery Life Sciences (Huntsville, LA, USA); host or cells: baculovirus-infected insect cells (microsomes, Supersomes)
T2 sequence (P11509 1-494): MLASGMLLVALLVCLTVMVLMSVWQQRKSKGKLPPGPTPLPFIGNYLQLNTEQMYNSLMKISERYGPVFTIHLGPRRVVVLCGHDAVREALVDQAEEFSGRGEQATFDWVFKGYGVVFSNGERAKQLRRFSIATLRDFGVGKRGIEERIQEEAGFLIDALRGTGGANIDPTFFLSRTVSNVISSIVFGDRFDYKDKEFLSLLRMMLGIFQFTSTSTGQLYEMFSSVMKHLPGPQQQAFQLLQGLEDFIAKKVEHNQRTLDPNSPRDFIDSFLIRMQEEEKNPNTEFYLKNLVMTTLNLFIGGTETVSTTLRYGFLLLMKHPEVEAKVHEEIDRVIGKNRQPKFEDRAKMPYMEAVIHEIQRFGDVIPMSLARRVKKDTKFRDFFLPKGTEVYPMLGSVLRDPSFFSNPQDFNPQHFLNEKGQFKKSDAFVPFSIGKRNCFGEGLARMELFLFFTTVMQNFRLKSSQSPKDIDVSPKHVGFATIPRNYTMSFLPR
Experimental: as §1

CYP2B6 = molecular target: T3, CYP2B6 (Homo sapiens, UniProt P20813); assay: Monooxygenases activity screening, CYP2B6; parameters: key: +, detected; -, not detected; conditions: 30 min, 37 °C
T3 construct: purchased Discovery Life Sciences (Huntsville, LA, USA); host or cells: baculovirus-infected insect cells (microsomes, Supersomes)
T3 sequence (P20813 1-491): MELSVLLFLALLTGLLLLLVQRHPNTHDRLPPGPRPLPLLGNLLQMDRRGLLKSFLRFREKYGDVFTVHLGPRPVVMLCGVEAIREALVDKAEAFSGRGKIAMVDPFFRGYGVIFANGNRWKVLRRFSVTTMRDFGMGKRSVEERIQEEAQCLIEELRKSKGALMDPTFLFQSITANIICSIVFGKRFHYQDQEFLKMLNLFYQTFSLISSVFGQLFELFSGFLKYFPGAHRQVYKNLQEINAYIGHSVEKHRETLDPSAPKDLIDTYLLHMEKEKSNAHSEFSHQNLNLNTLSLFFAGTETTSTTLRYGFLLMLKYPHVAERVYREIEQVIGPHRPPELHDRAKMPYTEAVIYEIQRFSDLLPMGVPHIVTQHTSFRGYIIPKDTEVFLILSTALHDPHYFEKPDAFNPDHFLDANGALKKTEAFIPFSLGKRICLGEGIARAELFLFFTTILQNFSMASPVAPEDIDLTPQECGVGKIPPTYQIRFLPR
Experimental: as §1

CYP2C8 = molecular target: T4, CYP2C8 (Homo sapiens, UniProt P10632); assay: Monooxygenases activity screening, CYP2C8; parameters: key: +, detected; -, not detected; conditions: 30 min, 37 °C
T4 construct: purchased Discovery Life Sciences (Huntsville, LA, USA); host or cells: baculovirus-infected insect cells (microsomes, Supersomes)
T4 sequence (P10632 1-490): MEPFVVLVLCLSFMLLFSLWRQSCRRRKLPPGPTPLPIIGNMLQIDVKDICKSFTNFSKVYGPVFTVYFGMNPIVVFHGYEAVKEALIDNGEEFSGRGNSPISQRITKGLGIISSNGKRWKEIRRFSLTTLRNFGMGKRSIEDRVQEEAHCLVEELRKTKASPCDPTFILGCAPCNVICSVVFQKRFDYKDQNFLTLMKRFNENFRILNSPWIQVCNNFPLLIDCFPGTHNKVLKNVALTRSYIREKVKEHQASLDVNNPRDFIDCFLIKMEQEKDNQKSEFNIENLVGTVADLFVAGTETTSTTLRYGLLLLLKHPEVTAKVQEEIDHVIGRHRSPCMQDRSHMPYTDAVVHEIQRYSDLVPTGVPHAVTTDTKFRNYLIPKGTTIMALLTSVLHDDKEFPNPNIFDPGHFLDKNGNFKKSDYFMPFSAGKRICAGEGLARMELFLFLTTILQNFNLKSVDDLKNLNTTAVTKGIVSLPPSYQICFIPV
Experimental: as §1

CYP2C9 = molecular target: T5, CYP2C9 (Homo sapiens, UniProt P11712); assay: Monooxygenases activity screening, CYP2C9; parameters: key: +, detected; -, not detected; conditions: 30 min, 37 °C
T5 construct: purchased Discovery Life Sciences (Huntsville, LA, USA); host or cells: baculovirus-infected insect cells (microsomes, Supersomes)
Experimental: as §1

CYP2C19 = molecular target: T6, CYP2C19 (Homo sapiens, UniProt P33261); assay: Monooxygenases activity screening, CYP2C19; parameters: key: +, detected; -, not detected; conditions: 30 min, 37 °C
T6 construct: purchased Discovery Life Sciences (Huntsville, LA, USA); host or cells: baculovirus-infected insect cells (microsomes, Supersomes)
Experimental: as §1

CYP2D6 = molecular target: T7, CYP2D6 (Homo sapiens, UniProt P10635); assay: Monooxygenases activity screening, CYP2D6; parameters: key to one-step metabolite detected in CYP2D6 incubation: +, detected; -, not detected; conditions: 30 min, 37 °C
T7 construct: purchased Discovery Life Sciences (Huntsville, LA, USA); host or cells: baculovirus-infected insect cells (microsomes, Supersomes)
Experimental: as §1

CYP2E1 = molecular target: T8, CYP2E1 (Homo sapiens, UniProt P05181); assay: Monooxygenases activity screening, CYP2E1; parameters: key: +, detected; -, not detected; conditions: 30 min, 37 °C
T8 construct: purchased Discovery Life Sciences (Huntsville, LA, USA); host or cells: baculovirus-infected insect cells (microsomes, Supersomes)
Experimental: as §1

CYP3A4 = molecular target: T9, CYP3A4 (Homo sapiens, UniProt P08684); assay: Monooxygenases activity screening, CYP3A4; parameters: key: +, detected; -, not detected; conditions: 30 min, 37 °C
T9 construct: purchased Discovery Life Sciences (Huntsville, LA, USA); host or cells: baculovirus-infected insect cells (microsomes, Supersomes)
Experimental: as §1

CYP3A5 = molecular target: T10, CYP3A5 (Homo sapiens, UniProt P20815); assay: Monooxygenases activity screening, CYP3A5; parameters: key: +, detected; -, not detected; conditions: 30 min, 37 °C
T10 construct: purchased Discovery Life Sciences (Huntsville, LA, USA); host or cells: baculovirus-infected insect cells (microsomes, Supersomes)
Experimental: as §1

[1] = molecular target: T11, flavin-containing monooxygenase 3 (FMO3) (Homo sapiens, UniProt P31513); assay: Monooxygenases activity screening, FMO3; parameters: key: +, detected; -, not detected; conditions: 30 min, 37 °C
T11 construct: purchased Discovery Life Sciences (Huntsville, LA, USA); host or cells: baculovirus-infected insect cells (microsomes, Supersomes)
T11 sequence (P31513 1-532): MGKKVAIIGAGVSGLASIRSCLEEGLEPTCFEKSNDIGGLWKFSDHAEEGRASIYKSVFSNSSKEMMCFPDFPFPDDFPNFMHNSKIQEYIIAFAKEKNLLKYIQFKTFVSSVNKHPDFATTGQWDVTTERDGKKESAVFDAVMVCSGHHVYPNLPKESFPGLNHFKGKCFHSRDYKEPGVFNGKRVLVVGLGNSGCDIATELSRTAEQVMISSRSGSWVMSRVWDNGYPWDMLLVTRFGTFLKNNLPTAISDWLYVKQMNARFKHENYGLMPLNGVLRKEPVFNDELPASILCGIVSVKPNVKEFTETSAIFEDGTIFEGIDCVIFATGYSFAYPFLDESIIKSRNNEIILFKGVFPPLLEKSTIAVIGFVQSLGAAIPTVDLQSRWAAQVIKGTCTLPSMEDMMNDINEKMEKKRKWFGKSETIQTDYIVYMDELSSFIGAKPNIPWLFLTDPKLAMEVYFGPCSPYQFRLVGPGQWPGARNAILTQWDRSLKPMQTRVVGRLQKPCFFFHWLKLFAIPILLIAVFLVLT
Experimental: as §1

[2] = In vitro plasma protein binding (ultrafiltration, Centrifree); conditions: human, pooled human blood plasma, 30 min, 37 °C, ultrafiltration
Experimental: PPB was investigated according to a previous study with minor modifications (Kroesen et al. [2025]). Fresh and pooled human blood plasma (450 µL) was spiked with 50 µL of a 5 µM methanolic solution of 4MeO-NE-BP, 4MeO-αP-BP, 4MeO-αP-VP, 4MeS-NE-BP, 4MeS-αP-BP, or 4MeS-αMor-PrP. The mixture was incubated for 30 min at 37 °C and with gentle shaking at 200 rpm. […] The Centrifree devices were centrifuged for 35 min at 1600 × g to obtain 100 µL of the ultrafiltrate (UF). […] Experiments were performed in quadruplicate. Fraction unbound (fu) and PPB were determined by comparing the area ratios of the compound and trimipramine-d3 as an internal standard in the UF and GA using the following equations:1 fu=peak area ratiocompoundUF/ISUF/peak area ratiocompoundGA/ISGA 2 PPB[\%]=1-fu∗100.

[3] = tested on: pooled human liver S9 fraction (pHLS9) and HepaRG cells; assay: In vitro metabolism by pHLS9 and HepaRG cells (LC-HRMS/MS metabolite identification); conditions: 25 µM substrate
[4] = substrate 4MeO-NE-BP 25 µM, Table S3.1
[5] = substrate 4MeS-NE-BP 25 µM, Table S3.4

T9 sequence (P08684 whole entry): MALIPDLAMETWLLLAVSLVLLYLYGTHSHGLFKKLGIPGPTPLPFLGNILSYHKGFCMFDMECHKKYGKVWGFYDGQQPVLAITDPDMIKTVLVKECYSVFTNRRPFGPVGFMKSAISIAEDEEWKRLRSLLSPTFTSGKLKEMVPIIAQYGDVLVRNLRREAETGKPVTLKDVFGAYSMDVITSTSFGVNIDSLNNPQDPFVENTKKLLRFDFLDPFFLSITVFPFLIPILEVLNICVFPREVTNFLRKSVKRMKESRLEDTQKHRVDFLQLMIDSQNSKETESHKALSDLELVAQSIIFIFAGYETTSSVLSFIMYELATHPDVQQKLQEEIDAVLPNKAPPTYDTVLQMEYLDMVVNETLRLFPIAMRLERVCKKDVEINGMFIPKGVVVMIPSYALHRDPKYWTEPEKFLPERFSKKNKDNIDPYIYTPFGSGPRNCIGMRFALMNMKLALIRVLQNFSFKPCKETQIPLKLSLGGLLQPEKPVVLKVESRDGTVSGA
T6 sequence (P33261 whole entry): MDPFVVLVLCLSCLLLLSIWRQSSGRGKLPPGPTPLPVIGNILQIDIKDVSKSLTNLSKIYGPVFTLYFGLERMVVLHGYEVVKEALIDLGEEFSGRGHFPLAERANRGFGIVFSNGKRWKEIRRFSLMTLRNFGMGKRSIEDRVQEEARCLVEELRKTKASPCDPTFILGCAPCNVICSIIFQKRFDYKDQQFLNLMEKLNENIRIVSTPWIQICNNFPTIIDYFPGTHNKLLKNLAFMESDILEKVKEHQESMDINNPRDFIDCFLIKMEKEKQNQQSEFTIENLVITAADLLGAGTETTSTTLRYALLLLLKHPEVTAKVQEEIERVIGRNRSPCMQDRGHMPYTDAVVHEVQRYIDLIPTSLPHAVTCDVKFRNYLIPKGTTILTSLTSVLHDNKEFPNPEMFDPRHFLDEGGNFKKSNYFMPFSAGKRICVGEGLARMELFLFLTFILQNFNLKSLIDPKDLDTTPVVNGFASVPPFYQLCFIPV
T10 sequence (P20815 whole entry): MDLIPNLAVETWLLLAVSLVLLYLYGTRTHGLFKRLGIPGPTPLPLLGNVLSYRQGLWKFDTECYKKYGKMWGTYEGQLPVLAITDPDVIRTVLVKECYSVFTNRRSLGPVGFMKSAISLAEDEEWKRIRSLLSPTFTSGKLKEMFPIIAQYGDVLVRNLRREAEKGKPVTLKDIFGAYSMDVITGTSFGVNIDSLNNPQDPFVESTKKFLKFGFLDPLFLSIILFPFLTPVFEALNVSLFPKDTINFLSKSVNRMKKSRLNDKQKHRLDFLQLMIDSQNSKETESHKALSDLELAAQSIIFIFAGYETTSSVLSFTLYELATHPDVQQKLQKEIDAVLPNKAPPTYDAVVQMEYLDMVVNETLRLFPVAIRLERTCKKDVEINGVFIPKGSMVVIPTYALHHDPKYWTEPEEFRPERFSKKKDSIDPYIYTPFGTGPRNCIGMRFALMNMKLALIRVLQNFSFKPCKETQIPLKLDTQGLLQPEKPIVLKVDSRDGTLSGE
T7 sequence (P10635 whole entry): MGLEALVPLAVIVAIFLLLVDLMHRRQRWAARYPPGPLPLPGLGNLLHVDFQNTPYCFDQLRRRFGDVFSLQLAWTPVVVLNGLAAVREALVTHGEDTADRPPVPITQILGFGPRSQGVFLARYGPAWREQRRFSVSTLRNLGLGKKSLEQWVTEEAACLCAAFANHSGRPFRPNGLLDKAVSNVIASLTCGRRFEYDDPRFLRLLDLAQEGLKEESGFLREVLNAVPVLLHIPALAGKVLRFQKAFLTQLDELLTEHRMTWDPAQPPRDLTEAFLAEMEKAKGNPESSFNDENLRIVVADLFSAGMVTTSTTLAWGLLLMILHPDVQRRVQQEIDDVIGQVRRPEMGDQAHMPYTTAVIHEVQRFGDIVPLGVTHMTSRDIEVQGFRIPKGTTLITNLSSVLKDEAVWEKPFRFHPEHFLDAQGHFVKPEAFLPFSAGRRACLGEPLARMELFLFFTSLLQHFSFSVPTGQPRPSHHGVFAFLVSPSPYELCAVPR
T8 sequence (P05181 whole entry): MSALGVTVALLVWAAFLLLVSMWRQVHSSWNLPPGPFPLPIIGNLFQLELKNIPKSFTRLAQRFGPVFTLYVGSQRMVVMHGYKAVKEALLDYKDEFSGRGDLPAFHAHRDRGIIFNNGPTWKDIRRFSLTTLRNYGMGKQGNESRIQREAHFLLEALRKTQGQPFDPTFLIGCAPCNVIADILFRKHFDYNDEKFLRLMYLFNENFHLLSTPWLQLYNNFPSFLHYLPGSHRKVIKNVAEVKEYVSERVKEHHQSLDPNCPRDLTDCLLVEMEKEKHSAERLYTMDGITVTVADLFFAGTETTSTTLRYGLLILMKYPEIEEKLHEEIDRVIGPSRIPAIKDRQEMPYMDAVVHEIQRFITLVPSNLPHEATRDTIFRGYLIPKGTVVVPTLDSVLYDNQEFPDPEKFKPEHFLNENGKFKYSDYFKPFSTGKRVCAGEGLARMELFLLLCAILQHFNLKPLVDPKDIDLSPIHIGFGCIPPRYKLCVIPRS
T5 sequence (P11712 whole entry): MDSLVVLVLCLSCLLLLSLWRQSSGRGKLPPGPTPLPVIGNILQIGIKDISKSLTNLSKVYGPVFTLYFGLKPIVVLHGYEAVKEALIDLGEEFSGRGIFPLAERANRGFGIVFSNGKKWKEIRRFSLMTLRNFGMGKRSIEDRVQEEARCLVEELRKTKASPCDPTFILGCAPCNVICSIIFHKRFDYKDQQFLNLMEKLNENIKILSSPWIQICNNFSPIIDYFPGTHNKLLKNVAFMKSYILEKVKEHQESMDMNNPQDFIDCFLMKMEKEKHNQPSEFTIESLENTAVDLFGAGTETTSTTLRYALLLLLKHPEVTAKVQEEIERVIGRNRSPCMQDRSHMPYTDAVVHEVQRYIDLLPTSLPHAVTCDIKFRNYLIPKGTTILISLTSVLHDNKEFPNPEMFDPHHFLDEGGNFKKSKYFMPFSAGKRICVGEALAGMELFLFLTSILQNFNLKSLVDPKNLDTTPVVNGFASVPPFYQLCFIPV

Structure (SMILES)	one-step metabolite detected in CYP1A2 incubation (CYP1A2; [4])	one-step metabolite detected in CYP2A6 incubation (CYP2A6; [4])	one-step metabolite detected in CYP2B6 incubation (CYP2B6; [4])	one-step metabolite detected in CYP2C8 incubation (CYP2C8; [4])	one-step metabolite detected in CYP2C9 incubation (CYP2C9; [4])	one-step metabolite detected in CYP2C19 incubation (CYP2C19; [4])	one-step metabolite detected in CYP2D6 incubation (CYP2D6; [4])	one-step metabolite detected in CYP2E1 incubation (CYP2E1; [4])	one-step metabolite detected in CYP3A4 incubation (CYP3A4; [4])	one-step metabolite detected in CYP3A5 incubation (CYP3A5; [4])	one-step metabolite detected in FMO3 incubation [1, 4]	also measured
CCC(C(=O)c1ccc(OC)cc1)N(O)CC (centres unmarked) [MO1.4]	+	-	+	+	-	+	+	-	+	+	+	
CCC(N)C(=O)c1ccc(OC)cc1 (centres unmarked) [MO1.3]	-	-	+	-	-	+	-	-	+	-	-	
CCNC(CC)C(=O)c1ccc(S)cc1 (centres unmarked) [MT1.1]												one-step metabolite detected in CYP1A2 incubation (CYP1A2; [5]): -; one-step metabolite detected in CYP2A6 incubation (CYP2A6; [5]): -; one-step metabolite detected in CYP2B6 incubation (CYP2B6; [5]): -; one-step metabolite detected in CYP2C8 incubation (CYP2C8; [5]): -; one-step metabolite detected in CYP2C9 incubation (CYP2C9; [5]): -; one-step metabolite detected in CYP2C19 incubation (CYP2C19; [5]): -; one-step metabolite detected in CYP2D6 incubation (CYP2D6; [5]): +; one-step metabolite detected in CYP2E1 incubation (CYP2E1; [5]): -; one-step metabolite detected in CYP3A4 incubation (CYP3A4; [5]): -; one-step metabolite detected in CYP3A5 incubation (CYP3A5; [5]): -; one-step metabolite detected in FMO3 incubation [1, 5]: -
CCNC(CC)C(=O)c1ccc(SC)cc1 (centres unmarked) [Compound 4MeS-NE-BP, 4’-methylthio-N-ethylbutyrophenone]												fraction unbound at 30 min, 0.5 µM ([2]; read-out: PPB, % (converted)): 0.13; fraction unbound at 30 min, 0.5 µM ([2]; read-out: fu (unbound fraction)): 0.13; metabolic reactions (metabolite IDs) identified [3]: S-demethylation (MT1.1), hydroxylation (MT1.2), N-dealkylation (MT1.3), hydroxylamine formation (MT1.4), hydroxylation + oxidation (MT1.5), N-dealkylation + S-demethylation (MT1.6), and hydroxylamine formation + hydroxylation (MT1.7); number of metabolites tentatively identified [3]: 7; S-demethylation, only mediated by one CYP isoform (CYP2D6; 25 µM): CYP2D6
